Experimental findings from patent US9775859B2, “Methods and compositions for preventing and treating a disease related to glycan dysregulation” (Sinai Health System, priority 2005, dated 2017) are described below.

Entries after “also recorded” stand apart in the source; their conditions may differ.

Test [1] deals with Jurkat T-cells. Description: L-PHA-FITC staining of Jurkat T cells cultured 3 days with monosaccharides, metabolites, Vitamin D3 or glycosidase inhibitors, FACS. The class given is cell-based, human. The conditions noted are these: for Mgat5-modified N-glycan expression: Jurkat T; for Mgat5 N-glycans / β1,6GlcNAc-branched N-glycans expression (L-PHA staining): 3 days culture with supplement. On the procedure: (§1) Mice used for L-PHA staining and quantitative RT-PCR were sex and age matched. […] 129/Sv mice were from an original Mgat5 gene targeted population (28). All other mice (SJL, NOD, Balb/c and B10.S) were obtained from Jackson Laboratories. […] Mouse and Jurkat cells were stained with L-PHA and LEA by first blocking with PBA (2% bovine serum albumin/0.01% azide/PBS) for 10 min at 4° C. and then incubated with 4 μg/ml of L-PHA-FITC (Vector Laboratories Inc.) or 20 μg/ml of LEA-FITC (Sigma) in PBA for 40 min at 4° C. and analyzed by a BD FACSCalihur (BD Pharmingen, San Diego, Calif.). The level of lectin binding was normalized by untreated control and calculated as a percentage (Sample intensity/control intensity-1) %.
(§2) Mice used for L-PHA staining and quantitative RT-PCR were sex and age matched. […] 129/Sv mice were from the original Mgat5 gene targeted population (28). All other mice (SJL, NOD, Balb/c and B10.S) were obtained from Jackson Laboratories. Mouse cells were stained with anti-CD4 (RM4-5), anti-CD8 (53-6.7), anti-CD45R (RA3-6B2) from eBioscience, and L-PHA (4 μg/ml) and LEA (20 μg/ml) from Sigma. […] Jurkat T-cells were cultured in either glutamine free RPMI 1640, 10% FBS, 10 mM/20 mM glucose or glucose/glutamine free DMEM base media supplemented with 10% FBS, 1.5 mM glucose. The indicated monosaccharides and/or metabolites were added daily except glucose which was added only at time zero.

In test [2] the test system is Jurkat T-cells. As to the kind of experiment: LEA-FITC staining (poly-N-acetyllactosamine) of Jurkat T cells, FACS. The test is classed as cell-based, human. Conditions: 3 days culture with supplement. On the procedure: as §1, §2
Test [3] concerns PL/J and C57/B6 T cell cultures. As to the kind of experiment: L-PHA staining of mouse CD3+ T cells stimulated with anti-CD3, FACS. The class given is cell-based. The conditions noted are these: for up-regulation of β1,6 GlcNAc branched N-glycans following stimulation: anti-CD3, minimal concentrations; for resting levels of β1,6 GlcNAc branched N-glycans: minimal concentrations. On the procedure: as §1
Mice used for L-PHA staining and quantitative RT-PCR were sex and age matched. […] 129/Sv mice were from the original Mgat5 gene targeted population (28). All other mice (SJL, NOD, Balb/c and B10.S) were obtained from Jackson Laboratories. Mouse cells were stained with anti-CD4 (RM4-5), anti-CD8 (53-6.7), anti-CD45R (RA3-6B2) from eBioscience, and L-PHA (4 μg/ml) and LEA (20 μg/ml) from Sigma. […] The indicated monosaccharides and/or metabolites were added daily except glucose which was added only at time zero. […] The plateau or highest non-toxic dose is shown.

In test [4] the test system is CHO cells. Description: MALDI-TOF mass spectroscopy N-glycan profile of CHO cells. The conditions noted are these: CHO cells treated with inhibitor. The test is classed as cell-based, Chinese Hamster. On the procedure: This was done as a service at the Glycotechnology core facility, a resource of the Glycobiology Research and Training Center (GRTC) at the University of California, San Diego. CD3+ murine T cells (6×10^6), resting PBMCs from human controls and MS subjects (6×10^6) and CHO cells (10×10^6) were lysed with 1% SDS in 100 mM Tris pH 7.4, dialyzed to remove SDS, digested with trypsin to generate glycopeptides and treated with PNGaseF to release the N-glycans. To focus on early processing, N-glycans were desialylated by mild acid digestion prior to permethylation and MALDI-TOF mass spectroscopy. Monoisotopic peaks in the spectra were identified using GlycanMass and GlycoMod online software, with specific targeting of the N-glycan intermediates occurring during Golgi processing.
(§3) For comparison of N-glycan profiles of mice and human MS patients, CHO cells and CHO cells deficient at 5 different steps in the N-glycan pathway (Glucosidase I, Mannosidase I, MGAT1, Mannosidase II and MGAT5, FIG. 7A) were used to define relative L-PHA and Concanavillin A (ConA) lectin staining levels by FACS along with MALDI TOF N-glycan processing profiles. […] Indeed, a human infant with severe human glucosidase I deficiency accumulates Glc3Man (885 A ion in FIG. 16A, 21C) in the urine, a 4 hexose oligomer which derives from the Glucosidase I substrate Glc3Man9GlcNAc2 via endo-mannosidase activity (70). […] Such activity would produce Man8GlcNAc2, Man7GlcNAc2 and Man6GlcNAc2 structures and allow processing by Mannosidase I/II. Indeed, N-glycans of these 3 compositions accumulate in Glucosidase I/II inhibited cells when Mannosidase I activity is blocked with DMN (69). The larger structures Glc3Man9GlcNAc2 (mass 3008) and Glc3Man7GlcNAc2 (mass 2600) were also observed (67), however they were at lower relative intensities compared to the A ion group (FIG. 21C). […] Mixing CHO and Lec1 cells in various proportions confirmed that relative differences in expression of N-glycan structures can be determined using MALDI TOF (FIG. 21G).

Test [5] relates to CHO cells. As to the kind of experiment: L-PHA and ConA lectin staining of CHO cells by FACS. The class given is cell-based, Chinese Hamster. The conditions noted are these: CHO cells treated with inhibitor.
Text: as §3
On the technique in general: A flow cytometer gives signals particle by particle.

Test [6] deals with Jurkat T-cells. Description: MS/MS mass spectroscopy of sugar-nucleotide expression in Jurkat cell lysates. The test is classed as cell-based, human. On the procedure: Jurkat cell pellets (20×10^6) were resuspended in a cold 300 μl methanol:water (1:1) solution containing maltose as internal standard, vortexed for 10 seconds, and then pipetted into tubes containing 600 μl of chloroform:methanol (C:M) (3:2). Samples were vortexed for 1 minute, and then centrifuged at 14,000 rpm for 5 minutes at 4° C. Supernatants were collected, and an equal volume of C:M (1:1) was added, followed by a second extraction. The pooled aqueous fraction containing the hydrophilic metabolites was dried with a speedvac and stored at −80° C. Prior to injection, the samples were dissolved in 100 μl methanol:water (1:1). […] The metabolites were identified by their transitions in MS/MS, and quantified using the Analyte Software (SCIEX), which measured the area under the curve for the fragment ions corresponding to each parent ion. Quantities for the given substrates are graphed as pmole/min/10^6 cells.
JurkaT-cell pellets (20×10^6) were resuspended in cold 300 μl methanol:water (1:1) solution containing maltose as an internal standard, vortexed for 10 seconds, and then pipetted into tubes containing 600 μl of chloroform:methanol (C:M) (3:2). […] The metabolites were identified by their transitions in MS/MS, and quantified using the Analyte Software (SCIEX), which measured the area under the curve for the fragment ions corresponding to each parent ion. […]

As to `CC(=O)N[C@H]1C(OC(C)=O)O[C@H](COC(C)=O)[C@@H](OC(C)=O)[C@@H]1OC(C)=O` (stereo partly drawn) [GlcNAc-tetra-acetate], in test [1] (Jurkat T-cells, 3 days), the “effective concentration to increase Mgat5-modified N-glycan expression, fold less than GlcNAc” value was approximately 1000 fold.

On to `N[C@H]1C(O)O[C@H](CO)[C@@H](O)[C@@H]1O` (stereo partly drawn) [Glucosamine], for which the “Mgat5-modified N-glycan expression” value is listed as “do the opposite; also recorded: declines” in test [1] (high concentrations) and “increase; also recorded: works” in test [1] (low concentrations).

`CC(=O)CC(=O)O` [acetoacetate]: in test [1] (Jurkat T-cells), the “Mgat5 N-glycans / β1,6GlcNAc-branched N-glycans expression (L-PHA staining)” value is “dose dependently increased”. In addition, in test [2], the “poly-N-acetyllactosamine expression (LEA staining)” value (shortened to “poly-N-acetyllactosamine expression”) is listed as “dose dependently increased”.

For the compound `N` [ammonia], the “Mgat5 N-glycans / β1,6GlcNAc-branched N-glycans expression (L-PHA staining)” value in test [1] (Jurkat T-cells) is “dose dependently increased”. The “poly-N-acetyllactosamine expression” value in test [2] is reported as “dose dependently increased”.

With `O[C@H]1[C@H](O)[C@@H](O)CN2CC[C@H](O)[C@H]12` [castanospermine, reference compound], the “up-regulation of β1,6 GlcNAc branched N-glycans following stimulation” value in test [3] (listed as CST) is listed as “significantly attenuated”; in test [1] (Jurkat T cells, PMA/ionomycin or anti-CD3, minimal concentrations, listed as CST), “significantly attenuated”. Further, the “resting levels of β1,6 GlcNAc branched N-glycans” value is “without affecting; also recorded: do not affect” in test [3] (listed as CST) and “without affecting; also recorded: do not affect” in test [1] (Jurkat T cells, minimal concentrations, listed as CST). The “Mgat5 glycan / β1,6GlcNAc-branched N-glycan expression after glycosidase inhibition (L-PHA)” value in test [1] (Jurkat T cells, 3 days) is “dose dependent reduction; also recorded: reduced”.

`OC[C@H]1NC[C@@H](O)[C@@H](O)[C@@H]1O` [deoxymannojirimycin]: in test [3] (listed as DMN), the “up-regulation of β1,6 GlcNAc branched N-glycans following stimulation” value was “significantly attenuated” and the “resting levels of β1,6 GlcNAc branched N-glycans” value was “without affecting; also recorded: do not affect”. In test [4], the “MALDI TOF profile of N-glycans (accumulated structures)” value is “dramatic increases in high mannose structures” and the “β1,6GlcNAc-branched tetra-antennary N-glycans (mass 2969, structure G)” value is on record as “diminished”. In addition, in test [5], the “high-mannose structures as seen by ConA staining” value is reported as “increased” and the “β1,6GlcNAc-branched N-glycan expression by L-PHA staining” value is on record as “dramatic reductions”.

For the compound `NC(=O)CC[C@H](N)C(=O)O` [glutamine], the “Mgat5 N-glycans / β1,6GlcNAc-branched N-glycans expression (L-PHA staining)” value in test [1] (Jurkat T-cells) was “dose dependently increased”. The “poly-N-acetyllactosamine expression” value in test [2] is recorded as “dose dependently increased”.

Take `O=c1cc[nH]c(=O)[nH]1` [uracil]: the “effective concentration required to raise Mgat5-modified N-glycan expression, fold reduction compared to uridine” value in test [1] (Jurkat T-cells, 3 days) is given as approximately 100 fold.

For the compound `O=c1ccn([C@@H]2O[C@H](CO)[C@@H](O)[C@H]2O)c(=O)[nH]1` [uridine], the “intracellular UDP-GlcNAc levels” value in test [6] is “dramatically raised”. Further, the “Mgat5 N-glycans / β1,6GlcNAc-branched N-glycans expression (L-PHA staining)” value in test [1] (Jurkat T-cells) was “dose dependently increased”. The “poly-N-acetyllactosamine expression” value in test [2] is on record as “dose dependently increased”.
